The text below walks through data of ChEMBL document CHEMBL1124708, “Glycolipids as host resistance stimulators” (1990).

Where “and” joins values, the source holds several entries; their conditions need not be identical. Equal values may be shown once.

The test system of test [1] is Mus musculus. The test can be described thus: Protective index of Pseudomonas aeruginosa after 40 mg/kg ip administration pretreated 250 mg/kg cytoxan ip on day -4. It counts as functional.
Test [2] has as its system Pseudomonas aeruginosa. Kind of test: Protective index against Pseudomonas aeruginosa after 40 mg/kg subcutaneous administration pretreated 250 mg/kg cytoxan intraperitoneal on day -4. The class given is functional.
Test [3] has as its system Pseudomonas aeruginosa. The test can be described thus: (§1) No of CFU was determined that cause 50% lethality against Pseudomonas aeruginosa after 40 mg/kg sc administration. The class given is functional. Conditions: route subcutaneous.
For test [4], the system named is Mus musculus. Kind of test: No of CFU was determined that cause 50% lethality against Pseudomonas aeruginosa after 40 mg/kg ip administration. It counts as functional. The note with it: route intraperitoneal.
Test [5] deals with Mus musculus. Kind of test: Protective index of Pseudomonas aeruginosa after 40 mg/kg sc administration pretreated 250 mg/kg cytoxan ip on day -4. The class given is functional.
A short description of test [6]: (§2) Log value of the protective index was calculated. The class given is functional.
The species entered for test [7] is Mus musculus. The description is as §2. It counts as functional, organism-based.
A short description of test [8]: as §2.
Test [9] has as its system Mus musculus. Kind of test: Protective index of Pseudomonas aeruginosa after 40 mg/kg im administration pretreated 250 mg/kg cytoxan ip on day -1. It counts as functional.
Test [10] has as its system Mus musculus. Kind of test: Protective index of Pseudomonas aeruginosa after 40 mg/kg im administration pretreated 250 mg/kg cytoxan ip on day -2. The class given is functional.
Test [11] has as its system Mus musculus. Kind of test: protective index of Pseudomonas aeruginosa after 40 mg/kg im administration pretreated 250 mg/kg cytoxan ip on day -1. The class given is functional.
Test [12] concerns Mus musculus. Kind of test: Protective index of Pseudomonas aeruginosa after 40 mg/kg sc administration pretreated 250 mg/kg cytoxan ip on day -7. It counts as functional.
The test system of test [13] is Mus musculus. The test can be described thus: Protective index of Pseudomonas aeruginosa after 4 mg/kg sc administration pretreated 250 mg/kg cytoxan ip. It counts as functional.
Test [14] deals with Mus musculus. Kind of test: Protective index Pseudomonas aeruginosa after 40 mg/kg sc administration pretreated 250 mg/kg cytoxan ip on day -4. It counts as functional.
Test [15] relates to Mus musculus. Described as §1. The class given is functional. Conditions: route subcutaneous.

Turning to `CC(C)CCCC(C)[C@H]1CC[C@H]2C3CC=C4C[C@@H](OCCCCCCS[C@@H]5O[C@@H](CO)[C@@H](O)[C@H](O)[C@@H]5O)CC[C@]4(C)[C@H]3CC[C@]12C` (stereo in doubt; form 1) [listing 1 of 2 here], the PI with Mus musculus [1] was 4.75; in the test with Pseudomonas aeruginosa [2], 0.53 and 0.94; in the test with Mus musculus [5], 2.94. The “No. of Colony forming Units” value in the test on Pseudomonas aeruginosa [3] (40 mg/kg) was 56.7 and 47 and 101; in the test on Mus musculus [4] it was 76.

Regarding `CC(=O)NC1C(SCCCCCCOC2CCC3(C)C(=CCC4C3CCC3(C)C(C(C)CCCC(C)C)CCC43)C2)OC(CO)C(O)C1O` (stereo in doubt; form 1) [listing 1 of 2 here], in the test with Pseudomonas aeruginosa [2], the PI is 0.53 and 0.7. Also, the “No. of Colony forming Units” value with Pseudomonas aeruginosa [3] (40 mg/kg) was 5.67 and 7.5.

On to `CC(C)CCCC(C)C1CCC2C3CC=C4CC(OCCCCSC5OC(CO)C(O)C(O)C5O)CCC4(C)C3CCC12C` (configuration not stated), for which the PI in the test on Pseudomonas aeruginosa [2] amounted to 0.84.

On to `CC(C)CCCC(C)C1CCC2C3CC=C4CC(OCCCCCCSC5OC(CN)C(O)C(O)C5O)CCC4(C)C3CCC12C` (configuration not stated), for which the PI in the test with Pseudomonas aeruginosa [2] is reported as 0.98.

As for `CC(=O)NC1C(SCCCCCCOC2CCC3(C)C(=CCC4C3CCC3(C)C(C(C)CCCC(C)C)CCC43)C2)OC(CO)C(O)C1O` (stereo in doubt; form 2) [listing 1 of 2 here], the Log PI in [6] is 0.

With `CC(C)CCCC(C)C1CCC2C3CC=C4CC(OCCCCCCSC5OCC(O)C(O)C5O)CCC4(C)C3CCC12C` (configuration not stated), the PI with Pseudomonas aeruginosa [2] is recorded as 1.01.

`CC(=O)NC1C(SCCCCCCOC2CCC3(C)C(=CCC4C3CCC3(C)C(C(C)CCCC(C)C)CCC43)C2)OC(CO)C(O)C1O` (stereo in doubt; form 1) [listing 2 of 2 here]: in the test filed under Mus musculus [7], the Log PI was 0.

In the case of `CC(C)CCCC(C)[C@H]1CC[C@H]2C3CC=C4C[C@@H](OCCCCCCS[C@@H]5O[C@@H](CO)[C@@H](O)[C@H](O)[C@@H]5O)CC[C@]4(C)[C@H]3CC[C@]12C` (stereo in doubt; form 2), the Log PI (in the test listed under Mus musculus [7]; in test [8]) was 0 in each case.

Take `CC(=O)NC1C(SCCCCCCOC2CCC3(C)C(=CCC4C3CCC3(C)C(C(C)CCCC(C)C)CCC43)C2)OC(CO)C(O)C1O` (stereo in doubt; form 2) [listing 2 of 2 here]: in the test on Pseudomonas aeruginosa [3] (40 mg/kg), the “No. of Colony forming Units” value was 56.7 and 75.

Take `COCC1OC(SCCCCCCOC2CCC3(C)C(=CCC4C3CCC3(C)C(C(C)CCCC(C)C)CCC43)C2)C(O)C(O)C1O` (configuration not stated): the PI in the test with Pseudomonas aeruginosa [2] came out at 0.53.

As to `CC(C)CCC[C@@H](C)[C@H]1CC[C@H]2[C@@H]3CC=C4C[C@@H](OCCCCCCS[C@@H]5O[C@@H](CO)[C@@H](O[C@@H]6O[C@@H](CO)[C@H](O)[C@H](O)[C@@H]6O)[C@H](O)[C@@H]5O)CC[C@]4(C)[C@H]3CC[C@]12C`, the PI with Pseudomonas aeruginosa [2] came to 3.5.

As to `CC(C)CCOC(=O)C1CCC2C3CC=C4CC(OCCCCCCSC5OC(CO)C(O)C(O)C5O)CCC4(C)C3CCC12C` (configuration not stated), the PI in the test on Pseudomonas aeruginosa [2] was 1.01.

On to `CC(C)CCCC(C)C1CCC2C3CC=C4CC(OCCCCCCCCSC5OC(CO)C(O)C(O)C5O)CCC4(C)C3CCC12C` (configuration not stated), for which the PI in the test with Pseudomonas aeruginosa [2] stood at 0.58.

Take `CC(C)CCCC(C)[C@H]1CC[C@H]2C3CC=C4C[C@@H](OCCCCCCS[C@@H]5O[C@@H](CO)[C@@H](O)[C@H](O)[C@@H]5O)CC[C@]4(C)[C@H]3CC[C@]12C` (stereo in doubt; form 1) [listing 2 of 2 here]: in [6], the Log PI was 0.

For `CC(C)CCCC(C)[C@H]1CC[C@H]2C3CC=C4C[C@@H](OCCCCCCS[C@@H]5O[C@@H](CO)[C@@H](O)[C@H](O)[C@H]5O)CC[C@]4(C)[C@H]3CC[C@]12C` (some centres not stated), the PI in the test on Mus musculus [9] is 2.29; in the test on Mus musculus [10], 9.52; in the test with Mus musculus [11], 2.29; in the test with Mus musculus [12], 4.81; in the test on Mus musculus [13], 2.59. In test [6], the Log PI was 4.02.

As for `CC(=O)N[C@H]1C(O)O[C@@H](COC(=O)[C@H]2CC[C@@]3(C)C(=CC[C@H]4[C@@H]5CC[C@H]([C@H](C)CCCC(C)C)[C@@]5(C)CC[C@@H]43)C2)[C@@H](O)[C@@H]1O[C@@H](C)C(=O)N[C@@H](C)C(=O)N[C@@H](CCC(=O)O)C(N)=O` (some centres not stated), the PI in the test on Pseudomonas aeruginosa [2] was 1000. In addition, in the test with Pseudomonas aeruginosa [3], the “No. of Colony forming Units” value came to 16000.

Take `CC(=O)N[C@@H]1C(O)O[C@@H](CO)[C@@H](O)[C@@H]1O[C@@H](C)C(=O)N[C@@H](C)C(=O)N[C@@H](CCC(=O)O)C(N)=O` (some centres not stated): the PI in the test with Mus musculus [14] was 1.87 and 1.31; in the test on Mus musculus [15], 1.31. The Log PI in test [6] was 0.27.

Consider `CC(C)CCCC(C)[C@H]1CC[C@H]2C3CC=C4C[C@@H](OCCCCCCS[C@H]5O[C@@H](CO)[C@@H](O)[C@H](O)[C@H]5O)CC[C@]4(C)[C@H]3CC[C@]12C` (some centres not stated), for which the Log PI in test [6] was 1.53.
